Experimental data taken from patent US9447075B2, “Pyridazine derivatives as EAAT2 activators” (The Brigham and Women's Hospital, Inc., priority 2011, dated 2016).

Experiments:
[1] = tested on: EAAT2; test: [3H]glutamate uptake assay in PA-EAAT2 cells; type: cell-based, human; conditions: PA-EAAT2 cells (FIG. 6D)
Description: Characterization and efficacy studies of a compound, Compound 212320 (FIG. 6A) is shown. […] In the absence of serum, PA-EAAT2 cells express low amounts of EAAT2 protein, although the recombinant EAAT2 mRNA are expressed (translational silencing); however, EAAT2 protein levels are increased when an activator is added to the culture (translational activation). This cell line was used for high-throughput screening to identify EAAT2 translational activators. To prioritize candidate compounds, we initially evaluated activation of EAAT2 protein in PA-EAAT2 cells. Promising compounds were further evaluated in primary dissociated neuron and astrocyte mixed cultures and then in mice. FIG. 6 presents the characterization of Compound 212320 in PA-EAAT2 cells. Compound 212320 increased EAAT2 protein levels in a dose—(FIG. 6B) and time—(FIG. 6C) dependent manner. Importantly, the induction occurred in a short amount of time (within 1-2 hr) and was sustained even up to 72 hr (data not show). Additionally, induction occurred at low nanomolar concentrations. […] (FIG. 6D).

[2] = tested on: All other targets (seventy-one targets tested); test: In vitro side effect profiling: all other of seventy-one targets; conditions: 10 μM, duplicate
Description: (§1) To assess Compound 212320's biological activity and selectivity, we performed an in vitro side effect profiling study. Seventy-one targets were tested at 10 μM in duplicate. These targets include neurotransmitter related receptors (30), steroids (2), ion channels (6), second messenger (1), prostaglandins (3), growth factors/hormones (4), brain/gut peptides (13), enzymes (5) and cytochrome p450 (7). […] Additionally, we performed a protein kinase profiling study. Compound 212320 was tested at 1 and 10 μM against 288 kinases. […] These studies indicate that Compound 212320 has high specificity and low side-effects/toxicity potential.

[3] = tested on: APPSw/Ind transgenic mice; test: Alzheimer's disease model, Y-maze test; type: in vivo, mouse; conditions: 40 mg/kg i.p. daily for 10 days, 7-month-old mice
Description: Compound 212320 was evaluated in APPSw/Ind transgenic mice, an Alzheimer's disease model. […] 7-month-old mice were treated with 40 mg/kg of Compound 212320 by intraperitoneal injection daily for 10 days and then evaluated the effects on short-term memory by Y-maze test. Compound 212320 restored short-term memory loss in APP mice after 10-day treatment (23 wild-type mice, 21 APP mice).
APPSw/Ind transgenic mice were treated with Compound 212320 at 40 mg/kg or vehicle intraperiotoneally beginning at 7 months after symptoms of memory loss are apparent. After daily treatment for 10 days, Y-maze was used to measure effects on short-term memory.

[4] = tested on: GFAP, GS, EAAT1, GAPDH, SOD1, actin, YB-1, RNA polymerase II, synaptophysin, EAAT3, EAAT4, PSD95, AKT, PI3K, IkB-α, ERK2; test: Total protein and expression of other proteins (global protein synthesis); type: in vivo, mouse
Description: Furthermore, the following observations indicate that the effects of Compound 212320 on EAAT2 protein expression were not due to a general increase in protein synthesis. First, the total amount of protein in compound-treated cells and mice was not increased compared with that in vehicle-treated cells and mice. Secondly, we examined the expression of a variety of other proteins in mouse brains: astrocyte-specific proteins including GFAP, glutamine synthetase (GS), and EAAT1 (another astrocytic glutamate transporter subtype), several housekeeping proteins including GAPDH, SOD1, actin, YB-1, RNA polymerase II, several neuronspecific proteins including synaptophysin, EAAT3 (a neuronal glutamate transporter), EAAT4, PSD95, and several signaling proteins including AKT, PI3K, IkB-α and ERK2.

[5] = tested on: male C57/BL6 mice, focal cerebral ischemia; test: Stroke model, transient middle cerebral artery occlusion (MCAO); type: in vivo, mouse; conditions: 24 hours after surgery
Description: Compound 212320 was evaluated in the transient middle cerebral artery occlusion (MCAO), a well-characterized model of focal cerebral ischemia (experimental stroke). Adult male C57/BL6 mice (60-70 days old) were used. The internal carotid artery was occluded for 60 min. Following reperfusion, mice received 40 mg/kg of Compound 212320 by intraperitoneal injection. 24 hours after surgery, brains were removed and processed to determine infarct volume.
Mice received 40 mg/kg Compound 212320 or vehicle intraperitoneally and 24 h after stroke, brains were processed to measure infarct volume.

[6] = biological target: EphA5 (Homo sapiens, UniProt P54756); test: Protein kinase profiling: EphA5; type: biochemical; conditions: read-out: EphA5 inhibited
Sequence of EphA5 (P54756 25-1037, species assumed): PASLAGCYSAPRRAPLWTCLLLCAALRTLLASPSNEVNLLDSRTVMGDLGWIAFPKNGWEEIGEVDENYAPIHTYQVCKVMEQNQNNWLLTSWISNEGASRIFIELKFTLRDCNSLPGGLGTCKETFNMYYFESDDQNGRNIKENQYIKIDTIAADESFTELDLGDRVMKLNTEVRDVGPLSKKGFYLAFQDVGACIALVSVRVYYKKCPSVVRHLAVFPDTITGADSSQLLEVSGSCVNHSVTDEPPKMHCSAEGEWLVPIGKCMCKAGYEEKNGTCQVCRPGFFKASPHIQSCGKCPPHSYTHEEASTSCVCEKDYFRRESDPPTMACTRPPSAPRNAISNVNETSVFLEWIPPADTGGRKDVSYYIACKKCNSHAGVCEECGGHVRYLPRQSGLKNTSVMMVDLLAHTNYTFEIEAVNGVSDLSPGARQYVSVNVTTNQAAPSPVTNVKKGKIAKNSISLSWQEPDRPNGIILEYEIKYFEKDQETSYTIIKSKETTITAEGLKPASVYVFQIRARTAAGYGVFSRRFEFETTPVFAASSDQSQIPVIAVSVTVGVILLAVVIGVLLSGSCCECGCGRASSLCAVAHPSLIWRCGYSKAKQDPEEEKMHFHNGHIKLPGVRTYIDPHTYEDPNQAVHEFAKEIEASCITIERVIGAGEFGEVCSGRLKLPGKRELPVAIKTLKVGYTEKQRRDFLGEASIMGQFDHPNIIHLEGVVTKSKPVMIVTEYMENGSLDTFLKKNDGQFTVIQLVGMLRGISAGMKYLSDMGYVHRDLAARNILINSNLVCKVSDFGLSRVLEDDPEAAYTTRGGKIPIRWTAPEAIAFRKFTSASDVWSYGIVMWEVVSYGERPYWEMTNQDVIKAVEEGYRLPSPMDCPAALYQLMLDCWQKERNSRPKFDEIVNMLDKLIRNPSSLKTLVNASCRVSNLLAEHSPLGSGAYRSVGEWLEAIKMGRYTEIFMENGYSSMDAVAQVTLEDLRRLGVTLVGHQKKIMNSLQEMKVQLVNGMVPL
Description: as §1

[7] = tested on: male C57BL/6 mice; test: Maximum tolerated dose / tolerability study; type: in vivo; conditions: single dose 10-75 mg/kg and five-day repeat dose 10-100 mg/kg i.p.
Description: (§2) We determined maximum tolerated dose (MTD) of Compound 212320 in male C57BL/6 mice. The study was conducted in two phases: (I) a single dose tolerability study tested at the doses of 10, 25, 50, and 75 mg/kg i.p. (3 mice/dose) and (II) a five-day repeat-dose tolerability study tested at the doses of 10, 25, 50, and 100 mg/kg i.p. (5 mice/dose). […] In the repeat-dose study, body weights were determined prior to each dose and prior to termination on day 6. Clinical pathologies including standard hematology, serum chemistry and coagulation parameters were evaluated on samples collected on day 6. All animals from phase II were necropsied, and selected organs were weighed. […] Due to lack of toxicity, the highest dose tested, 100 mg/kg/day, was determined to be the 5-day no observed adverse effect level (NOAEL) for Compound 212320.

[8] = Maximum tolerated dose / tolerability study; type: in vivo; conditions: male, C57BL/6, mouse, in vivo, ip; five-day repeat-dose i.p., highest dose tested; read-out: 5-day no observed adverse effect level (NOAEL)
Description: as §2

Compound: Cc1ccccc1CSc1ccc(-c2ccccn2)nn1 [Compound 7-4]
- Glutamate uptake function [1]: correlated to increased EAAT2 protein levels
- inhibition, all other targets [2]: < 30%
- Short-term memory loss (Y-maze test) [3]: restored
- Induction of other proteins in mouse brains ([4]; FIG. 8F): None of the above proteins were induced
- Total amount of protein vs vehicle ([4]; compound-treated cells and mice): not increased
- Decrease of infarct volume ([5]; 40 mg/kg i.p. following reperfusion, vs vehicle): 57%
- Infarct volume ([5]; 40 mg/kg i.p., n=6): 6.8±1.6
- inhibition at 10 µM [6]: 44%
- Clinical signs of toxicity, clinical pathology, body weight [7]: no clinical signs of toxicity
- NOAEL at 5 day [8]: 100 mg/kg/day
